Measurements from patent US9788549B2, “Broad spectrum disinfectant” (DI[…] LLC, priority 2014, dated 2017).

How the values were obtained:
[1] = solution has the proper amount of sodium polyphosphate
[2] = atmospheric pressure, 20° C.; cited from earlier work

In the case of [O][Cl+][O-] [Chlorine dioxide], the “stability of ClO2 in solution” value [1] is listed as “remain stable for years” and the solubility in water [2] is listed as “approximately 70 g/l”.
